Experimental data as given in patent US4175081A, “5-Substituted thiadiazole ureas” (priority 1977, dated 1979).

Key:
Corn (CN) [1] = assay: Post-emergence herbicide test; type: in vivo; conditions: Zea mays, 336 h, two weeks after treatment; for pest or weed control: 2 lb/acre; for pest or weed control at 4483.4 g/ha: 4 lb/acre
How it was run: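 Greenhouse seedlings grown in potting soil and sprayed post-emergence at 8 lbs compound/acre (formulations also made for 4 lbs/acre) in 38 gallons/acre spray volume. Watering by sub-irrigation only. Injury or control rated visually two weeks after treatment.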

Cotton (CT) [2] = assay: Pre-emergence herbicide test; type: in vivo, Gossypium hirsutum var. DPL smooth leaf; conditions: Gossypium hirsutum, 336 h, two weeks after treatment; for pest or weed control at 2241.7 g/ha: 2 lb/acre; for pest or weed control at 4483.4 g/ha: 4 lb/acre
How it was run: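 Visual injury/control ratings were taken at two weeks post-spray. Pots seeded a day earlier received compound pre-emergence at 8 lbs/acre, or 4 lbs/acre, in a 38 gallon/acre spray volume, and were then held in the greenhouse, watered only from below.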

Johnson grass (JG) [3] = assay: Post-emergence herbicide test; type: in vivo, Sorgum helepense; conditions: Sorghum halepense, 336 h, two weeks after treatment; for pest or weed control: 2 lb/acre; for pest or weed control at 4483.4 g/ha: 4 lb/acre
How it was run: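 Visual injury or control scores taken 2 weeks after a post-emergence spray of pot-grown plants. Application was 8 lbs/acre (or 4 lbs/acre) in 38 gal/acre. Plants were held in the greenhouse with sub-irrigation only.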

Bean (BN) [4] = assay: Post-emergence herbicide test; type: in vivo, Phaseolus vulgaris var. Black Valentine; conditions: Phaseolus vulgaris, post-emergence, 336 h, two weeks after treatment; for pest or weed control at 2241.7 g/ha: 2 lb/acre; for pest or weed control at 4483.4 g/ha: 4 lb/acre
How it was run: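 Bean seedlings (Phaseolus vulgaris var. Black Valentine) were grown in potting soil in 3' pots until the primary leaves expanded. They were then sprayed under a hood with a removable belt and fixed nozzle, using 50 ml formulations. Afterward they were returned to the greenhouse and watered only by sub-irrigation. Percent control was judged visually two weeks after treatment.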

Cotton (CT) [5] = assay: Post-emergence herbicide test; type: in vivo, Gossypium hirsutum var. DPL smooth leaf; conditions: Gossypium hirsutum, post-emergence, 336 h, two weeks after treatment; for pest or weed control at 2241.7 g/ha: 2 lb/acre; for pest or weed control at 4483.4 g/ha: 4 lb/acre
How it was run: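 This greenhouse post-emergence test measured how well spray treatments controlled cotton. Seedlings of Gossypium hirsutum var. DPL smooth leaf, with expanded cotyledons and a first true leaf 1' in length, were sprayed with 50 ml formulations in a belt-fed spray hood. They were then returned to the greenhouse and watered only by sub-irrigation. Injury was scored visually as % control after two weeks.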

Barnyard grass (BG) [6] = assay: Post-emergence herbicide test; type: in vivo; conditions: Echinochloa crus-galli, 336 h, two weeks after treatment; for pest or weed control at 2241.7 g/ha: 2 lb/acre
How it was run: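 Greenhouse pot-grown barnyard grass seedlings sprayed post-emergence at 8 lbs active compound per acre (some at 4 lbs/acre) in 38 gallons per acre, then sub-irrigated. Injury or control rated visually two weeks after treatment.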

Amaranth pigweed (PW) [7] = assay: Post-emergence herbicide test; type: in vivo, Amaranthus retroflexus; conditions: 336 h, two weeks after treatment; for pest or weed control at 2241.7 g/ha: 2 lb/acre; for pest or weed control at 4483.4 g/ha: 4 lb/acre
How it was run: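 Visual injury or control ratings were made two weeks after spraying, with greenhouse watering by sub-irrigation only. Treatment was post-emergence, when pigweed seedlings had 1 or 2 true leaves, at 8 lbs active compound per acre (4 lbs/acre formulations also made) in a 38 gallons-per-acre spray volume.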

Amaranth pigweed (PW) [8] = assay: Pre-emergence herbicide test; type: in vivo, Amaranthus retroflexus; conditions: 336 h, two weeks after treatment; for pest or weed control at 2241.7 g/ha: 2 lb/acre; for pest or weed control at 4483.4 g/ha: 4 lb/acre
How it was run: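 Visual injury or control ratings were made at two weeks on pre-emergence pots, sub-irrigated in the greenhouse. Seeds were sown a day before a hood spray delivering 8 lbs/acre (or 4 lbs/acre) of compound in 38 gallons per acre.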

Turnip (TP) [9] = assay: Post-emergence herbicide test; type: in vivo, Brassica sp.; conditions: Brassica rapa, post-emergence, 336 h, two weeks after treatment; for pest or weed control at 2241.7 g/ha: 2 lb/acre; for pest or weed control at 4483.4 g/ha: 4 lb/acre
How it was run: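 A greenhouse post-emergence herbicide test on turnip. Seeds were sown on the surface of potting soil in 3' plastic pots, lightly covered with screened soil and watered from below. Planting was timed so seedlings had 1 or 2 true leaves above the cotyledons at spraying, done in a hood with a fixed nozzle. Control or injury was scored by eye after two weeks.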

Crabgrass (CG) [10] = assay: Post-emergence herbicide test; type: in vivo, Digitaria sanquinalis; conditions: Digitaria sanguinalis, post-emergence, 336 h, two weeks after treatment; for pest or weed control: 2 lb/acre; for pest or weed control at 4483.4 g/ha: 4 lb/acre
How it was run: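 Crabgrass (Digitaria sanquinalis) was surface seeded individually in 3' plastic pots of potting soil, covered with screened soil, and watered by sub-irrigation in greenhouse trays. Planting was staggered so seedlings reached the target stage together. Post-emergence sprays were applied in a hood with a removable belt and fixed nozzle, and control was visually rated two weeks after treatment.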

Crabgrass (CG) [11] = assay: Pre-emergence herbicide test; type: in vivo, Digitaria sanquinalis; conditions: Digitaria sanguinalis, pre-emergence, 336 h, two weeks after treatment; for pest or weed control: 2 lb/acre; for pest or weed control at 4483.4 g/ha: 4 lb/acre
How it was run: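 Crabgrass (Digitaria sanquinalis) was surface seeded in 3' plastic pots of potting soil, covered with screened soil, and watered by sub-irrigation in greenhouse trays. Pots were seeded one day before spraying in a hood with a moving belt and fixed nozzle. Plants stayed in the greenhouse on sub-irrigation, and pre-emergence control was rated visually two weeks after treatment.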

Barnyard grass (BG) [12] = assay: Pre-emergence herbicide test; type: in vivo; conditions: Echinochloa crus-galli, 336 h, two weeks after treatment; for pest or weed control at 2241.7 g/ha: 2 lb/acre
How it was run: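 Greenhouse pre-emergence spray test: pots seeded one day before treatment received compound at rates of 8 or 4 lb/acre (38 gal/acre). Visual injury/control scores for Echinochloa crus-galli taken at two weeks, with watering by sub-irrigation only.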

Bean (BN) [13] = assay: Pre-emergence herbicide test; type: in vivo, Phaseolus vulgaris var. Black Valentine; conditions: Phaseolus vulgaris, 336 h, two weeks after treatment; for pest or weed control at 2241.7 g/ha: 2 lb/acre; for pest or weed control at 4483.4 g/ha: 4 lb/acre
How it was run: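 Visual injury/control ratings were taken two weeks post-spray on sub-irrigated Phaseolus vulgaris var. Black Valentine. Pots were sown a day before treatment. Pre-emergence spray delivered 8 lbs actual compound per acre (or 4 lbs/acre) at 38 gallons per acre.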

Turnip (TP) [14] = assay: Pre-emergence herbicide test; type: in vivo, Brassica sp.; conditions: Brassica rapa, pre-emergence, 336 h, two weeks after treatment; for pest or weed control at 2241.7 g/ha: 2 lb/acre; for pest or weed control at 4483.4 g/ha: 4 lb/acre
How it was run: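 In this pre-emergence greenhouse test, turnip was seeded on the surface of potting soil in 3' plastic pots, lightly covered with screened soil, and watered from below. One day later the pots were sprayed in a belt-fed spray hood. Watering continued only by sub-irrigation, and percent control was visually scored two weeks after treatment.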

Johnson grass (JG) [15] = assay: Pre-emergence herbicide test; type: in vivo, Sorgum helepense; conditions: Sorghum halepense, 336 h, two weeks after treatment; for pest or weed control at 2241.7 g/ha: 2 lb/acre; for pest or weed control at 4483.4 g/ha: 4 lb/acre
How it was run: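 Visual injury or control rating two weeks post-treatment, after pre-emergence spray of 8 or 4 lbs active per acre (38 gal/acre) onto pots sown the previous day. Greenhouse watering by sub-irrigation only.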

Corn (CN) [16] = assay: Pre-emergence herbicide test; type: in vivo; conditions: Zea mays, 336 h, two weeks after treatment; for pest or weed control at 2241.7 g/ha: 2 lb/acre; for pest or weed control at 4483.4 g/ha: 4 lb/acre
How it was run: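 Visual injury/control ratings were made 2 weeks post-spray on corn pots seeded (4 seeds, seed-diameter depth) the day before treatment. Application was a belt-hood spray of 38 gal/acre delivering 8 lbs active per acre, with a 4 lbs/acre rate also formulated. Watering was by sub-irrigation throughout.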

| Structure (SMILES) | pest or weed control (Corn (CN) [1]) | pest or weed control at 4483.4 g/ha (Corn (CN) [1]) | pest or weed control at 2241.7 g/ha (Cotton (CT) [2]) | pest or weed control at 4483.4 g/ha (Cotton (CT) [2]) | pest or weed control (Johnson grass (JG) [3]) | pest or weed control at 4483.4 g/ha (Johnson grass (JG) [3]) | pest or weed control at 2241.7 g/ha (Bean (BN) [4]) | pest or weed control at 4483.4 g/ha (Bean (BN) [4]) | pest or weed control at 2241.7 g/ha (Cotton (CT) [5]) | pest or weed control at 4483.4 g/ha (Cotton (CT) [5]) | pest or weed control at 2241.7 g/ha (Barnyard grass (BG) [6]) | pest or weed control at 4483.4 g/ha (Amaranth pigweed (PW) [7]) | pest or weed control at 4483.4 g/ha (Amaranth pigweed (PW) [8]) | pest or weed control at 2241.7 g/ha (Turnip (TP) [9]) | pest or weed control at 4483.4 g/ha (Turnip (TP) [9]) | pest or weed control (Crabgrass (CG) [10]) | pest or weed control at 4483.4 g/ha (Crabgrass (CG) [10]) | pest or weed control (Crabgrass (CG) [11]) | pest or weed control at 4483.4 g/ha (Crabgrass (CG) [11]) | pest or weed control at 2241.7 g/ha (Barnyard grass (BG) [12]) | other results |
| --- | --- | --- | --- | --- | --- | --- | --- | --- | --- | --- | --- | --- | --- | --- | --- | --- | --- | --- | --- | --- | --- |
| CCCSc1nnc(N(C)C(=O)N(C)C)s1 [Example 66] | 30% | 100% | 80% | 100% | 50% | 60% | 90% | 100% | 100% | 100% | 60% | 100% | 100% | 100% | 100% | 50% | 100% | 30% | 100% | 30% | pest or weed control at 4483.4 g/ha (Barnyard grass (BG) [6]; 4 lb/acre): 70%; pest or weed control at 2241.7 g/ha (Amaranth pigweed (PW) [7]): 100%; pest or weed control at 2241.7 g/ha (Amaranth pigweed (PW) [8]): 100%; pest or weed control at 4483.4 g/ha (Barnyard grass (BG) [12]; 4 lb/acre): 100%; pest or weed control at 2241.7 g/ha (Bean (BN) [13]): 100%; pest or weed control at 4483.4 g/ha (Bean (BN) [13]): 100%; pest or weed control at 2241.7 g/ha (Turnip (TP) [14]): 50%; pest or weed control at 4483.4 g/ha (Turnip (TP) [14]): 100%; pest or weed control at 2241.7 g/ha (Johnson grass (JG) [15]): 20%; pest or weed control at 4483.4 g/ha (Johnson grass (JG) [15]): 100%; pest or weed control at 2241.7 g/ha (Corn (CN) [16]): 0%; pest or weed control at 4483.4 g/ha (Corn (CN) [16]): 50% |
| CNC(=O)Nc1nnc(C(F)F)s1 [Example 67] | 40% | 70% | 0% | 80% | 40% | 90% | 90% | 100% | 100% | 100% | 80% | 100% | 100% | 100% | 100% | 80% | 80% | 80% | 90% | 50% | pest or weed control at 2241.7 g/ha (Bean (BN) [13]): 0%; pest or weed control at 4483.4 g/ha (Bean (BN) [13]): 90%; pest or weed control at 2241.7 g/ha (Turnip (TP) [14]): 60%; pest or weed control at 4483.4 g/ha (Turnip (TP) [14]): 100%; pest or weed control at 2241.7 g/ha (Johnson grass (JG) [15]): 40%; pest or weed control at 4483.4 g/ha (Johnson grass (JG) [15]): 50%; pest or weed control at 2241.7 g/ha (Corn (CN) [16]): 0%; pest or weed control at 4483.4 g/ha (Corn (CN) [16]): 70% |
| CNC(=O)Nc1nnc(C(F)(F)C(F)(F)F)s1 [Example 68] | 50% | 100% | 60% | 90% | 80% | 80% | 90% | 100% | 80% | 100% | 60% | 100% | 100% | 100% | 100% | 90% | 100% | 50% | 90% | 30% | pest or weed control at 2241.7 g/ha (Amaranth pigweed (PW) [7]): 100%; pest or weed control at 2241.7 g/ha (Amaranth pigweed (PW) [8]): 100%; pest or weed control at 2241.7 g/ha (Bean (BN) [13]): 0%; pest or weed control at 4483.4 g/ha (Bean (BN) [13]): 100%; pest or weed control at 2241.7 g/ha (Turnip (TP) [14]): 60%; pest or weed control at 4483.4 g/ha (Turnip (TP) [14]): 60%; pest or weed control at 2241.7 g/ha (Johnson grass (JG) [15]): 20%; pest or weed control at 4483.4 g/ha (Johnson grass (JG) [15]): 30%; pest or weed control at 2241.7 g/ha (Corn (CN) [16]): 30%; pest or weed control at 4483.4 g/ha (Corn (CN) [16]): 50% |
